Patent US12371432B2, “Haloallylamine compounds and application thereof” (TransThera Sciences (Nanjing), Inc., priority 2019, dated 2025)
Structures can show the parent of a compound that is named as a salt.

Legend:
rhAOC1 = biological target: T1, rhAOC1 (Homo sapiens, UniProt P19801); experiment: Selectivity against rhAOC1 enzyme (Biological Example 2); format: biochemical; settings: Table 2; histamine substrate, Amplex Red/HRP
T1 construct: purchased R&D
T1 sequence (P19801 20-751): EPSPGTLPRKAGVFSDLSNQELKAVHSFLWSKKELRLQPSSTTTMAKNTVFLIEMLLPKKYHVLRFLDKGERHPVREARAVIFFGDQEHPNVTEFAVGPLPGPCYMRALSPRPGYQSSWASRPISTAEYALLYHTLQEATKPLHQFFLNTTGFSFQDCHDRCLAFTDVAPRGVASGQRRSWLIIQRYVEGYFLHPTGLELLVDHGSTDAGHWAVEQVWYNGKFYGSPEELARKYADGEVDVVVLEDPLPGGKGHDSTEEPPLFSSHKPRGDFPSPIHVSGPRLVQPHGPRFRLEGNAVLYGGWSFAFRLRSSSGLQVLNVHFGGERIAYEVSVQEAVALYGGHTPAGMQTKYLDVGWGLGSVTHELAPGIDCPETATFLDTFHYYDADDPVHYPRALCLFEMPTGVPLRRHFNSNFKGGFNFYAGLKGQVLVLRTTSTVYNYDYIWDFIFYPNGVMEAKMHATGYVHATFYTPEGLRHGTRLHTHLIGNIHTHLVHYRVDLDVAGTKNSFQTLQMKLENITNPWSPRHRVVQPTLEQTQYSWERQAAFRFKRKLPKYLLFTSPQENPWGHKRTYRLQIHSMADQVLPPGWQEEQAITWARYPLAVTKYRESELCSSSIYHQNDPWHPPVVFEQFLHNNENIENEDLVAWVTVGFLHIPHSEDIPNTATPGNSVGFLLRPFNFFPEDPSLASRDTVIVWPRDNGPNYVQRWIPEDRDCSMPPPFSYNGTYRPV
Experimental: 2. Selectivity of Compounds Against rhAOC1 Enzyme
(§1) (1) Instrument, Consumable and Reagent
Microplate reader (Perkin Elmer, Nivo 5S), black unclear-bottom 96-well plate (Corning) and rhAOC1 (R&D)
(§2) (2) Preparation of Concentration Gradient Compound Solutions
An appropriate amount of the compound to be tested was taken, dissolved in DMSO to 10 mM and then stored. Before the study, an appropriate amount of mother liquor of the 10 mM compound to be tested was taken and gradiently diluted 3-fold with DMSO, 10 concentration gradients in total. Each concentration gradient was then diluted 10-fold with 0.1 M of PBS.
(§3) (3) Preparation of Enzyme Solutions
An appropriate amount of rhAOC1 mother liquor with a concentration of 0.441 mg/mL was taken and diluted with an appropriate amount of 50 mM HEPES buffer solution to obtain enzyme solutions of 4× concentrations.
(§4) (4) Preparation of Substrate Mixtures of 2× Concentrations
An appropriate amount of histamine was weighed and dissolved with 50 mM of HEPES buffer solution to obtain 20 mM of histamine solution. The histamine solution was added with 2 mM of Amplex Red mother liquor and 500 U/mL of HRP mother liquor and diluted with 50 mM of HEPES buffer solution to obtain substrate mixtures of 2× concentrations.
10 μL compound solutions of different concentrations, 25 μL rhAOC1 enzyme solutions of 4× concentrations and 15 μL of 50 mM HEPES buffer solution were first added into a 96-well plate, shaken to be mixed uniformly and then incubated at 37° C. for 30 min. 50 μL substrate mixtures of 2× concentrations were then added into each well, and the microplate reader was immediately used to detect fluorescence intensity of each well with 580 nm (20 nm) exciting light and 620 nm (10 nm) emission light for 5 min each time, 30 min in total. The inhibition rate was calculated according to the following formula: V (RFU/min)=(Ft (RFU)−F0 (RFU))/(time(min)) Inhibition rate (%)=100%−Vcmpd (RFU/min)/Vmax (RFU/min)×100%
V: fluorescence change rate; Ft: fluorescence reading at time point t; F0: initial fluorescence reading; Time: duration t; Vcmpd: fluorescence change rate of tested compound; Vmax: Max hole fluorescence change rate.
(6) Fitting of Dose-Response Curve
(§5) With the log value of concentration as the X axis and the percent inhibition rate as the Y axis, the log (inhibitor) vs. response-variable slope of analysis software GraphPad Prism 5 was used to fit a dose-response curve, thus obtaining the IC50 value of activity of each compound against the enzyme.

MAO-B = biological target: T2, MAO-B (Homo sapiens, UniProt P27338); experiment: Selectivity against MAO-B enzyme (MAO-Glo); format: biochemical
T2 construct: purchased Active Motif
T2 sequence (P27338 1-520): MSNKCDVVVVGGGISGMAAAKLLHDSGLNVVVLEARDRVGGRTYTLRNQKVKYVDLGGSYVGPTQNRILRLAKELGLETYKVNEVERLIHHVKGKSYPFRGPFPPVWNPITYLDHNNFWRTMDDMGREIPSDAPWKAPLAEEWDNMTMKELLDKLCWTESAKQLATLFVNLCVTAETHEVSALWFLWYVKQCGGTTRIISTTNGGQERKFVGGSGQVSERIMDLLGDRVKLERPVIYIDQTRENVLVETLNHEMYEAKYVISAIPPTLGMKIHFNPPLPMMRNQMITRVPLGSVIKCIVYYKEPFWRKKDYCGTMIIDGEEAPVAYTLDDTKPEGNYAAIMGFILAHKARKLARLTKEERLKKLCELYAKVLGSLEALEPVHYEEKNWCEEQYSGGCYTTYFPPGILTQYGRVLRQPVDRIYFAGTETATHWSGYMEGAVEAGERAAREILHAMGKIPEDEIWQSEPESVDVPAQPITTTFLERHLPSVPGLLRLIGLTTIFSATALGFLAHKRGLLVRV
Experimental: as §1
Microplate reader (Perkin Elmer, EnVision), 384-well plate (Perkin Elmer), centrifuge (Eppendorf), MAO-Glo™ (Promega), MAO-A (Active Motif) and MAO-B (Active Motif).
as §2
An appropriate amount of the compound to be tested was taken, dissolved in DMSO to 10 mM and then stored. The solution was then gradiently diluted 4-fold with DMSO, 6 concentration gradients in total.
as §3
MAO-A/B mother liquor was diluted with the experimental buffer for MAO-A/B to obtain enzyme solutions of 2× concentrations.
as §4
The mother liquor of MAO-A/B substrate mixture was diluted with the experimental buffer for MAO-A/B to obtain substrate mixtures of 2× concentrations.
200 nL compound solutions or solvents of different concentrations and 10 μL MAO-A/B enzyme solutions of 2× concentrations were added into a 384-well plate, centrifuged at 1,000 rpm for 60 s, shaken to be mixed uniformly and then incubated at room temperature for 15 min. 10 μL substrate mixtures of 2× concentrations were then added into each well, and reaction was initiated. The 384-well plate was centrifuged at 1,000 rpm for 60 s, shaken for a uniform mixing and then incubated at room temperature for 60 min. 20 μL of test stop solution was added to stop reaction. Centrifugation was performed at 1,000 rpm for 60 s, and shaking was performed for uniform mixing. After 30 min of standing, the microplate reader was used to perform reading.
The inhibition rate was calculated according to the following formula: Inhibition rate (%)=(Signal_Max-Signal_sample)/(Signal_Max-Signal_min)×100 (6) Fitting of Dose-Response Curve
as §5

IC50 (rhAOC1)	IC50 (MAO-B)	Compound
9.65 µM	> 100 µM	NC/C(=C\F)Cn1cc2c(=O)n(C3CC3)ccc2n1 [Compound A41, (E)-2-(2-(aminomethyl)-3-fluoroallyl)-5-cyclopropyl-2,5-dihydro-4H-pyrazolo[4,3-c]pyridin-4-one]
11.5 µM	> 100 µM	CCN1CCc2cn(C/C(=C/F)CN)cc2C1=O [Compound A25, (E)-2-(2-(aminomethyl)-3-fluoroallyl)-5-ethyl-2,5,6,7-tetrahydro-4H-pyrrolo[3,4-c]pyridin-4-one]
3.18 µM	> 100 µM	CNC(=O)c1cnn(C/C(=C/F)CN)c1 [Compound B1, (E)-1-(2-(aminomethyl)-3-fluoroallyl)-N-methyl-1H-pyrazole-4-carboxamide]
14.8 µM	> 100 µM	NC/C(=C\F)Cn1cc2c(c1)C(=O)N(C1CC1)CC2 [Compound A22, (E)-2-(2-(aminomethyl)-3-fluoroallyl)-5-cyclopropyl-2,5,6,7-tetrahydro-4H-pyrrolo[3,4-c]pyridin-4-one]

Second part, the compound before the results:

Compound	IC50 (rhAOC1)	IC50 (MAO-B)
Cl.NC/C(=C\F)Cn1cc2c(c1Cl)CCN(C1CC1)C2=O [Compound A42 hydrochloride, (E)-2-(2-(aminomethyl)-3-fluoroallyl)-1-chloro-5-cyclopropyl-2,5,6,7-tetrahydro-4H-pyrrolo[3,4-c]pyridin-4-one]	28.9 µM	> 100 µM
NC/C(=C\F)Cn1c(Br)c2c(c1Br)C(=O)N(C1CC1)CC2 [Compound A33 hydrochloride, (E)-2-(2-(aminomethyl)-3-fluoroallyl)-1,3-dibromo-5-cyclopropyl-2,5,6,7-tetrahydro-4H-pyrrolo[3,4-c]pyridin-4-one]	> 100 µM	> 100 µM
NC/C(=C\F)Cn1ncc2c1CCN(C1CC1)C2=O [Compound A2 hydrochloride, (E)-1-(2-(aminomethyl)-3-fluoroallyl)-5-cyclopropyl-1,5,6,7-tetrahydro-4H-pyrazolo[4,3-c]pyridin-4-one]		> 100 µM
Cc1c2c(cn1C/C(=C/F)CN)C(=O)N(C1CC1)CC2 [Compound A35 hydrochloride, (E)-2-(2-(aminomethyl)-3-fluoroallyl)-5-cyclopropyl-1-methyl-2,5,6,7-tetrahydro-4H-pyrrolo[3,4-c]pyridin-4-one]	7.03 µM	92.7 µM
Cl.NC/C(=C\F)Cn1cc2c(c1Br)CCN(C1CC1)C2=O [Compound A32 hydrochloride, (E)-2-(2-(aminomethyl)-3-fluoroallyl)-1-bromo-5-cyclopropyl-2,5,6,7-tetrahydro-4H-pyrrolo[3,4-c]pyridin-4-one]	23.6 µM	> 100 µM
CC(C)(C)N1CCc2nn(C/C(=C/F)CN)cc2C1=O [Compound A7 hydrochloride, (E)-2-(2-(aminomethyl)-3-fluoroallyl)-5-tert-butyl-2,5,6,7-tetrahydro-4H-pyrazolo[4,3-c]pyridin-4-one]	50 µM	> 100 µM
CCn1ccc2c(cnn2C/C(=C/F)CN)c1=O [Compound A29 hydrochloride, (E)-1-(2-(aminomethyl)-3-fluoroallyl)-5-ethyl-1,5-dihydro-4H-pyrazolo[4,3-c]pyridin-4-one]	0.674 µM	> 100 µM
CCN1CCc2nn(C/C(=C/F)CN)cc2C1=O [Compound A6 hydrochloride, (E)-2-(2-(aminomethyl)-3-fluoroallyl)-5-ethyl-2,5,6,7-tetrahydro-4H-pyrazolo[4,3-c]pyridin-4-one]	8.95 µM	> 100 µM
CCn1ccc2nn(C/C(=C/F)CN)cc2c1=O [Compound A28 hydrochloride, (E)-2-(2-(aminomethyl)-3-fluoroallyl)-5-ethyl-2,5-dihydro-4H-pyrazolo[4,3-c]pyridin-4-one]	4.06 µM	> 100 µM
